4 compounds from patent publication US20230292752A1, “S[…] COMBINATIONS, COMPOSITIONS AND USE THEREOF” (UPL Corporation Limited, priority 2020, published 2023) can be followed below.

Assay type in all cases: in vivo
Experiment [1] deals with Digitaria sanguinalis DIGSA. The experiment is described as follows: Field trial, clethodim and carfentrazone-ethyl, weed control on Digitaria sanguinalis. Here is the method:
(§1) Field trials were performed to evaluate the efficacy of present combination, clethodim and carfentrazone-ethyl on annual grass control and dicot control in perennial crops. • Grass weeds targeted: LOLSS, BROSS, ECHSS, DIGSS, SETS S • Dicot weeds targeted: ERISS, GERSS, Sonchus sp., CONAR, Malva sp (rosette stage when application, prior stem elongation, prior flowering, prior ground cover) • Application volume: 300 L/ha
(§2) Colby's equation was used to determine the herbicidal effects expected from the mixtures. (See Colby, S. R. Calculation of the synergistic and antagonistic response of herbicide combinations. Weeds 1967, 15, 20-22.)
(§3) The following equation was used to calculate the expected activity of mixtures containing two active ingredients, A and B:
(§4) Expected=A+B−(A×B/100) • A=observed efficacy of active component A at the same concentration as used in the mixture; • B=observed efficacy of active component B at the same concentration as used in the mixture. The ability of the compositions described herein to afford suitable weed control is illustrated by the efficacy data in Table 3 to 10
Biological Activity Observed with Synergistic Mixtures of Clethodim and Carfentrazone (Carfentrazone-ethyl) in Applications on Digitaria sanguinalis DIGSA (n=2) at 56-59 DAA was represented in table below.

Experiment [2] has as its system Echinochloa crus-galli ECHCG. The experiment is described as follows: Field trial, clethodim and carfentrazone-ethyl, weed control on Echinochloa crus-galli. Here is the method:
as §1, §2, §3, §4
Biological Activity Observed with Synergistic Mixtures of Clethodim and Carfentrazone in Applications on Echinochloa crus-galli ECHCG (n=2) 56-59 DAA was represented in table below.

The subject of a further experiment is Lolium multiflorum LOLMU. The experiment is described as follows: Field trial, clethodim and carfentrazone-ethyl, weed control on Lolium multiflorum. Here is the method: as §1, §2, §3, §4
Biological Activity Observed with Synergistic Mixtures of Clethodim and Carfentrazone in Applications on Lolium multiflorum LOLMU (n=2) 56-59 DAA was represented in table below

For a further experiment, the system named is Setaria pumila SETPU. Nature of the experiment: Field trial, clethodim and carfentrazone-ethyl, weed control on Setaria pumila. Here is the method: as §1, §2, §3, §4
Biological Activity Observed with Synergistic Mixtures of Clethodim and Carfentrazone in Applications on Setaria pumila SETPU (n=1) 56-59 DAA was represented in table below

The next experiment has as its system Sonchus oleraceus SONOL. Nature of the experiment: Field trial, clethodim and carfentrazone-ethyl, weed control on Sonchus oleraceus. Here is the method:
as §1, §2, §3, §4
Biological Activity Observed with Synergistic Mixtures of Clethodim and Carfentrazone in Applications on Sonchus oleraceus SONOL (n=2) 14-15 DAA

The test system of experiment [3] is Convolvulus arvensis CONAR. The experiment is described as follows: Field trial, clethodim and carfentrazone-ethyl, weed control on Convolvulus arvensis. Here is the method:
as §1, §2, §3, §4
Biological Activity Observed with Synergistic Mixtures of Clethodim and Carfentrazone in Applications on Convolvulus arvensis CONAR (n=2) 14-15 DAA.

In another experiment the test system is Portulaca oleracea POROL. Nature of the experiment: Field trial, clethodim and carfentrazone-ethyl, weed control on Portulaca oleracea. Here is the method: as §1, §2, §3, §4
Biological Activity Observed with Synergistic Mixtures of Clethodim and Carfentrazone in Applications on Portulaca oleracea POROL (n=1) 14 DAA.

The test system of another experiment is Senecio vulgaris SENVU. The experiment is described as follows: Field trial, clethodim and carfentrazone-ethyl, weed control on Senecio vulgaris. Here is the method: as §1, §2, §3, §4
Biological Activity Observed with Synergistic Mixtures of Clethodim and Carfentrazone in Applications on Senecio vulgaris SENVU (n=1) 14 DAA.

The test system of a further experiment is Setaria weeds. Nature of the experiment: Trial on table grapes, clethodim and pyraflufen-ethyl, Setaria weed control. To be noted: 28 days after treatment. Here is the method:
Clethodim and pyraflufen-ethyl were tested on table grapes as individual applications, premix and tank-mix combinations. The products were formulated as an EC formulation and compared with Glufosinate SC. Effect of the treatment was checked on Setaria weeds at 28 days after treatment.

The subject of another experiment is Green foxtail. The experiment is described as follows: Pot trial, clethodim and pyraflufen-ethyl, green foxtail. To be noted: 4 DAT. Here is the method:
(§5) Pot trials for clethodim, pyraflufen-ethyl and their combination (premix and tan-mix) were carried out against green foxtail, large crabgrass and Bermuda grass

In the next experiment the test system is Large crabgrass. Nature of the experiment: Pot trial, clethodim and pyraflufen-ethyl, large crabgrass. To be noted: 4 DAT. Here is the method: as §5
For the next experiment, the system named is Bermuda grass. Nature of the experiment: Pot trial, clethodim and pyraflufen-ethyl, Bermuda grass. To be noted: 4 DAT. Here is the method: as §5
The mark [4] stands for this setting: carfentrazone 30 gai/ha, clethodim 0, n=2.
Setting [5] is: carfentrazone 45 gai/ha, clethodim 0, n=2.
Where [6] appears, read: carfentrazone 60 gai/ha, clethodim 0, n=2.
Where [7] appears, read: carfentrazone 12 gai/ha, clethodim 0, n=1.
Where [8] appears, read: carfentrazone 20 gai/ha, clethodim 0, n=1.
Setting [9] is: carfentrazone 30 gai/ha, clethodim 0, n=1.
Setting [10] is: carfentrazone 45 gai/ha, clethodim 0, n=1.
Setting [11] is: carfentrazone 60 gai/ha, clethodim 0, n=1.
[12] abbreviates: clethodim 120 gai/ha, carfentrazone 0, n=2.
Where [13] appears, read: clethodim 180 gai/ha, carfentrazone 0, n=2.
[14] abbreviates: clethodim 72 gai/ha, carfentrazone 0, n=1.
The mark [15] stands for this setting: clethodim 120 gai/ha, carfentrazone 0, n=1.
Setting [16] is: clethodim 180 gai/ha, carfentrazone 0, n=1.

Consider `CCOC(=O)C(Cl)Cc1cc(-n2nc(C)n(C(F)F)c2=O)c(F)cc1Cl` (stereo not shown) [Carfentrazone, Carfentrazone-ethyl], for which the “Observed Efficacy (O) in % (56-59 DAA)” value in experiment [1] (setting [4]) is on record as 13%; in experiment [1] (setting [5]), 27%; in [1] (setting [6]), 17%; in [2] (setting [4]), 57%; in [2] (setting [6]), 59%; with Lolium multiflorum LOLMU (setting [4]), 50%. The “Observed Efficacy (O) in % (56-59 DAA)” value is recorded as 50% in the experiment with Lolium multiflorum LOLMU (setting [5]); 50% in the experiment on Lolium multiflorum LOLMU (setting [6]); 0% in the experiment with Setaria pumila SETPU (setting [7]); 0% with Setaria pumila SETPU (setting [8]); 0% with Setaria pumila SETPU (setting [9]); 0% in the experiment with Setaria pumila SETPU (setting [10]). Besides, the “Observed Efficacy (O) in % (56-59 DAA)” value in the experiment with Setaria pumila SETPU (setting [11]) came out at 0%. Further, the “Observed Efficacy (O) in % (14-15 DAA)” value was 89% in the experiment with Sonchus oleraceus SONOL (carfentrazone 20 gai/ha, clethodim 0, n=2); 92% with Sonchus oleraceus SONOL (setting [4]); 58% in experiment [3] (carfentrazone 12 gai/ha, clethodim 0, n=2); 93% in experiment [3] (setting [6]). Further, the “Observed Efficacy (O) in % (14 DAA)” value is reported as 90% in the experiment on Portulaca oleracea POROL (setting [8]); 97% with Portulaca oleracea POROL (setting [9]); 100% with Portulaca oleracea POROL (setting [10]); 100% in the experiment on Portulaca oleracea POROL (setting [11]); 88% with Senecio vulgaris SENVU (setting [7]); 92% in the experiment on Senecio vulgaris SENVU (setting [8]). In addition, the “Observed Efficacy (O) in % (14 DAA)” value is on record as 97% in the experiment with Senecio vulgaris SENVU (setting [9]), 100% with Senecio vulgaris SENVU (setting [10]) and 100% in the experiment with Senecio vulgaris SENVU (setting [11]).

With `CCSC(C)CC1CC(=O)C(/C(CC)=N/OC/C=C/Cl)=C(O)C1` (stereo not shown) [Clethodim], the “Observed Efficacy (O) in % (56-59 DAA)” value was determined as 95% in [1] (setting [12]); 97% in experiment [1] (setting [13]); 84% in experiment [2] (setting [12]); 97% in experiment [2] (setting [13]); 52% in the experiment on Lolium multiflorum LOLMU (setting [12]); 74% in the experiment with Lolium multiflorum LOLMU (setting [13]). Further, the “Observed Efficacy (O) in % (56-59 DAA)” value is reported as 43% in the experiment with Setaria pumila SETPU (setting [14]), 50% with Setaria pumila SETPU (setting [15]) and 94% with Setaria pumila SETPU (setting [16]). Moreover, the “Observed Efficacy (O) in % (14-15 DAA)” value in the experiment with Sonchus oleraceus SONOL (setting [12]) came out at 13%; in [3] (clethodim 72 gai/ha, carfentrazone 0, n=2), 8%; in experiment [3] (setting [12]), 12%; in experiment [3] (setting [13]) it was 8%. In addition, the “Observed Efficacy (O) in % (14 DAA)” value in the experiment with Portulaca oleracea POROL (setting [15]) is given as 0%; in the experiment with Portulaca oleracea POROL (setting [16]), 0%; in the experiment with Senecio vulgaris SENVU (setting [14]) it was 0%; in the experiment with Senecio vulgaris SENVU (setting [15]), 2%; with Senecio vulgaris SENVU (setting [16]), 0%. In addition, the “Weed control % (Observed efficacy)” value in the experiment on Setaria weeds (125 g ai/ha) worked out at 85%. Besides, the “% control (observed)” value stood at 25% in the experiment with Green foxtail (250 gai/ha), 20% in the experiment with Large crabgrass (250 gai/ha) and 20% in the experiment on Bermuda grass (250 gai/ha).

As for `CP(=O)(O)CCC(N)C(=O)O` (stereo not shown) [Glufosinate], the “Weed control % (Observed efficacy)” value in the experiment with Setaria weeds (700 g ai/ha) worked out at 85%. Also, the “% control (observed)” value turned out to be 65% in the experiment on Green foxtail (350 gai/ha) and 75% in the experiment with Green foxtail (700 gai/ha).

With `CCOC(=O)COc1cc(-c2nn(C)c(OC(F)F)c2Cl)c(F)cc1Cl` [Pyraflufen-ethyl], the “Weed control % (Observed efficacy)” value with Setaria weeds (12 g ai/ha, formulated with mineral oil) was 0%. Moreover, the “% control (observed)” value came out at 20% in the experiment with Green foxtail (24 gai/ha), 10% in the experiment with Large crabgrass (24 gai/ha) and 10% in the experiment with Bermuda grass (24 gai/ha).
